For orientation: IC50 means the concentration that inhibits the measured activity by half. A lower IC50 goes with greater potency.

We go through 61 molecules from the Kinase Knowledgebase extract (Sharma et al. 2016).

This test addresses CDK2 (human) (UniProt P24941). Briefly: Enzyme Assay.
`CCOC(=O)c1cccc(Nc2nccc(-c3cccnc3OC)n2)c1` yielded an IC50 of less than 5 µM.

`Cc1nccn1CCCNc1ncccc1-c1ccnc(Nc2cccc(Cl)c2)n1` displayed an IC50 of less than 5 µM.

As for `COc1ncccc1-c1ccnc(Nc2cccc(C3CCNCC3)c2)n1`, the IC50 was less than 5 µM. In the case of `CC(=O)NCCCNc1cc(-c2nc(Nc3cccc(Cl)c3)ncc2C)ccn1`, the IC50 was less than 5 µM. On to `CCNC(=O)c1cccc(Nc2nccc(-c3cccnc3OC)n2)c1`, for which the IC50 was less than 5 µM. As to `CS(=O)(=O)NCCCNc1ncccc1-c1ccnc(Nc2cccc(Cl)c2)n1`, the IC50 was less than 5 µM. Turning to `COc1cnccc1-c1ccnc(Nc2cccc(S(C)(=O)=O)c2)n1`, the IC50 was less than 5 µM. Take `CC(=O)NCC(C)(C)CNc1ncccc1-c1ccnc(Nc2cccc(Cl)c2)n1`: the IC50 was less than 5 µM. Under `CC(=O)NCCCNc1nccc(-c2ccnc(Nc3cccc(Cl)c3)n2)c1C` stands less than 5 µM; under `NCCCCNc1ncccc1-c1ccnc(Nc2cccc(Cl)c2)n1`, less than 5 µM; under `Cc1cnccc1-c1ccnc(Nc2cccc(Cl)c2)n1`, less than 5 µM.

For `CC(=O)NCCCNc1ncccc1-c1ccnc(Nc2cccc(C#N)c2)n1`, the IC50 is less than 5 µM. As for `CC(=O)NCCCNc1nccc(-c2ccnc(Nc3cccc([N+](=O)[O-])c3)n2)c1C`, the IC50 was less than 5 µM. In turn, `Cc1cnc(Nc2cccc(Cl)c2)nc1-c1cccnc1NCCCN` yielded an IC50 of less than 5 µM.

Molecule `CC(=O)NCCCNc1ncccc1-c1ccnc(Nc2cccc(Cl)c2)n1` yielded an IC50 of less than 5 µM.

For the molecule `NCCCNc1ncccc1-c1ccnc(Nc2cccc(S(N)(=O)=O)c2)n1`, the IC50 is less than 5 µM.

`CCCCNS(=O)(=O)c1cccc(Nc2nccc(-c3cccnc3OC)n2)c1` came in with an IC50 of less than 5 µM. The molecule `N#Cc1cccc(Nc2nccc(-c3cccnc3NCCCN)n2)c1` had an IC50 of less than 5 µM. As for `COc1ncccc1-c1ccnc(Nc2cccc(C(N)=O)c2)n1`, the figure is less than 5 µM; as for `Cc1c(-c2ccnc(Nc3cccc(Cl)c3)n2)ccnc1NCCCN1CCOCC1`, less than 5 µM.

`COc1ncccc1-c1ccnc(Nc2cccc(-c3nncn3C)c2)n1`: the IC50 was less than 5 µM.

Take `COc1ncccc1-c1ccnc(Nc2cccc(S(=O)(=O)N3CCCCC3)c2)n1`: the half-maximal inhibitory concentration (IC50) is less than 5 µM. `CC(C)(CN)CNc1ncccc1-c1ccnc(Nc2cccc(Cl)c2)n1` had an IC50 of less than 5 µM.

Regarding `OCCCNc1ncccc1-c1ccnc(Nc2cccc(Cl)c2)n1`, the IC50 was less than 5 µM. As for `COc1ncccc1-c1ccnc(Nc2cccc(C(=O)OC(C)(C)C)c2)n1`, the figure is less than 5 µM. Turning to `COc1ncccc1-c1ccnc(Nc2cccc(S(C)(=O)=O)c2)n1`, the IC50 was less than 5 µM. With `CC(=O)NCCCNc1ncccc1-c1ccnc(Nc2cccc(S(N)(=O)=O)c2)n1`, the IC50 was less than 5 µM. On to `CC(C)NCCCNc1ncccc1-c1ccnc(Nc2cccc(Cl)c2)n1`, for which the IC50 was less than 5 µM. `CCNS(=O)(=O)c1cccc(Nc2nccc(-c3cccnc3OC)n2)c1`: the IC50 was less than 5 µM.

In the case of `NS(=O)(=O)c1cccc(Nc2nccc(-c3cccnc3NCCCn3ccnc3)n2)c1`, the IC50 was less than 5 µM. `COc1ncccc1-c1ccnc(Nc2cccc(S(=O)(=O)NCCO)c2)n1` displayed an IC50 of less than 5 µM.

For `CN(C)CCCNc1ncccc1-c1ccnc(Nc2cccc(Cl)c2)n1`, the half-maximal inhibitory concentration (IC50) is less than 5 µM. As for `NCCNc1ncccc1-c1ccnc(Nc2cccc(Cl)c2)n1`, the figure is less than 5 µM; as for `COc1ncccc1-c1ccnc(Nc2cccc(C#N)c2)n1`, less than 5 µM; as for `COc1ncccc1-c1ccnc(Nc2ccc(N3CCN(C)CC3)cc2)n1`, less than 5 µM. As for `CC(=O)NCCCCNc1ncccc1-c1ccnc(Nc2cccc(Cl)c2)n1`, the IC50 is less than 5 µM. For `Cc1c(-c2ccnc(Nc3cccc(Cl)c3)n2)ccnc1NCCCn1ccnc1`, the IC50 is less than 5 µM. Turning to `Clc1cccc(Nc2nccc(-c3cccnc3NCCCn3ccnc3)n2)c1`, the IC50 is less than 5 µM. Molecule `Clc1cccc(Nc2nccc(-c3cccnc3NCCCN3CCOCC3)n2)c1` had an IC50 of less than 5 µM.

In turn, `CC(=O)NCCCNc1cc(-c2ccnc(Nc3cccc(Cl)c3)n2)cc(C)n1` had an IC50 of less than 5 µM. Consider `Clc1cccc(Nc2nccc(-c3cccnc3NCCc3c[nH]cn3)n2)c1`, for which the IC50 was less than 5 µM. `COCCCNc1ncccc1-c1ccnc(Nc2cccc(Cl)c2)n1`: the IC50 is less than 5 µM.

As to `COc1cnccc1-c1ccnc(Nc2cccc(Cl)c2)n1`, the IC50 was less than 5 µM. Take `COc1ncccc1-c1ccnc(Nc2cccc(S(N)(=O)=O)c2)n1`: the IC50 is less than 5 µM.

Turning to `CC(=O)OCCCNc1ncccc1-c1ccnc(Nc2cccc(Cl)c2)n1`, the IC50 was less than 5 µM. With `Cc1c(-c2ccnc(Nc3cccc(Cl)c3)n2)ccnc1NCCCN1CCCC1=O`, the IC50 was less than 5 µM. As for `Cc1c(-c2ccnc(Nc3cccc(Cl)c3)n2)ccnc1NCc1ccccc1`, the figure is less than 5 µM.

Molecule `CNCCNc1nccc(-c2ccnc(Nc3cccc(Cl)c3)n2)c1C` showed an IC50 of less than 5 µM.

In the case of `CNS(=O)(=O)c1cccc(Nc2nccc(-c3cccnc3OC)n2)c1`, the IC50 is less than 5 µM. In the case of `CS(=O)(=O)c1cccc(Nc2nccc(-c3cccnc3NCCCN)n2)c1`, the IC50 was less than 5 µM.

As for `CC(=O)NCCNc1ncccc1-c1ccnc(Nc2cccc(Cl)c2)n1`, the IC50 is less than 5 µM. `COc1ncccc1-c1ccnc(Nc2cccc(C(=O)O)c2)n1` registered an IC50 of less than 5 µM. `COc1cnccc1-c1ccnc(Nc2cccc(S(N)(=O)=O)c2)n1` yielded an IC50 of less than 5 µM. Molecule `COc1ncccc1-c1ccnc(Nc2cccc(-c3cnco3)c2)n1` returned an IC50 of less than 5 µM. Under `COc1ccc(-c2ccnc(Nc3cccc(S(C)(=O)=O)c3)n2)c(OC)n1` stands less than 5 µM; under `NCCCNc1ncccc1-c1ccnc(Nc2cccc(Cl)c2)n1`, less than 5 µM. Take `COCCCNc1nccc(-c2ccnc(Nc3cccc(Cl)c3)n2)c1C`: the IC50 is less than 5 µM. Under `COc1ncccc1-c1ccnc(Nc2ccc3cn[nH]c3c2)n1` stands less than 5 µM; under `Nc1cnccc1-c1ccnc(Nc2cccc(Cl)c2)n1`, less than 5 µM; under `COc1ncccc1-c1ccnc(Nc2cccc(NC(C)=O)c2)n1`, less than 5 µM. As for `O=C1CCCN1CCCNc1ncccc1-c1ccnc(Nc2cccc(Cl)c2)n1`, the figure is less than 5 µM.
